From article PMC9607427, “Novel 7-Chloro-(4-thioalkylquinoline) Derivatives: Synthesis and Antiproliferative Activity through Inducing Apoptosis and DNA/RNA Damage” (Pharmaceuticals, 2022)

Test system: CCRF-CEM lymphoblasts
Test: BrU incorporation analysis (RNA synthesis)
Format: cell-based, human
Conditions: 24 h
Description: The effect of compounds on cell cycle distribution was determined to gain insights into the mechanism of its antiproliferative activity. […] For example, as compared with control, the percentage of cells in G2/M phases was increased by treatment with 5 × IC50 μM of compounds for 24 h (Table 4). […] As shown in (Table 4), there was a marked increase in the sub-G1 from 2.91 in untreated cells. 5-Bromo-2-deoxyuridine (BrDU) is incorporated into newly synthesized DNA, and 5-bromouridine (BrU) pulse labeling is therefore commonly used as a proliferation marker. Low BrDU and BrU incorporation into the DNA or RNA, respectively, of treated cells with all compounds at 5 × IC50 reflected inhibition of DNA and RNA synthesis, indicating irreversible apoptotic changes. The percentage of […] cells incorporating 5-bromouridine is proportional to the transcriptional activity of CCRF-CEM cells. Cells were cultured and treated as described above. Before harvesting, pulse-labeling with 1 mM BrU for 30 min followed. The cells were then fixed in 1% buffered paraformaldehyde with 0.05% NP-40 at rt for 15 min, and then stored at 4 °C overnight. Before measurement, they were washed with 1% glycine in PBS, washed with PBS again and stained with primary anti-BrDU antibody cross-reacting to BrU (Exbio) for 30 min at rt in the dark. From this point, the experiment was performed exactly as in the previous method.

[1] = 5 × IC50 (second value of cell)

Structure (SMILES)	RNA Synthesis (% positive of cells) (1 × IC50 (first value of cell))	RNA Synthesis (% positive of cells) [1]
COc1ccc(C(=O)OCCS(=O)(=O)c2cc[n+]([O-])c3cc(Cl)ccc23)cc1[N+](=O)[O-] [Compound 69, 2-[(N-Oxide 7-chloroquinolin-4-yl)sulfonyl]ethyl-4-methoxy-3-nitrobenzoate]	31.54%	2.64%
COc1ccccc1C(=O)OCCS(=O)(=O)c1cc[n+]([O-])c2cc(Cl)ccc12 [Compound 68, 2-[(N-Oxide 7-chloroquinolin-4-yl)sulfonyl]ethyl-2-methoxybenzoate]	37.4%	3.8%
O=C(OCCS(=O)(=O)c1cc[n+]([O-])c2cc(Cl)ccc12)c1ccc(C(F)(F)F)cc1 [Compound 72, 2-[(N-Oxide 7-chloroquinolin-4-yl)sulfonyl]ethyl-4-(trifluoromethyl)benzoate]	21.64%	2.19%
COc1cc(OC)c(C(=O)OCCS(=O)(=O)c2cc[n+]([O-])c3cc(Cl)ccc23)cc1OC [Compound 66, 2-[(N-Oxide 7-chloroquinolin-4-yl)sulfonyl]ethyl-2,4,5-trimethoxybenzoate]	29.44%	3.05%
COc1ccc(OC)c(C(=O)OCCS(=O)(=O)c2cc[n+]([O-])c3cc(Cl)ccc23)c1 [Compound 65, 2-[(N-Oxide 7-chloroquinolin-4-yl)sulfonyl]ethyl-2,5-dimethoxybenzoate]	36.04%	24.95%
Cc1ccc([N+](=O)[O-])c(C(=O)OCCS(=O)(=O)c2cc[n+]([O-])c3cc(Cl)ccc23)c1 [Compound 70, 2-[(N-Oxide 7-chloroquinolin-4-yl)sulfonyl]ethyl-5-methyl-2-nitrobenzoate]	35.28%	2.88%
COc1ccc(C(=O)OCCS(=O)(=O)c2cc[n+]([O-])c3cc(Cl)ccc23)cc1 [Compound 63, 2-[(N-Oxide 7-chloroquinolin-4-yl)sulfonyl]ethyl-4-methoxybenzoate]	35.01%	2.79%
